For 14 compounds, TGI results are on record in PubChem BioAssay (NCI).

Among the test systems are CCRF-CEM leukemia; NCI-H522 lung; PC-3 prostate; OVCAR-5 ovarian; HCT-116 colon; OVCAR-4 ovarian; MCF7 breast; SNB-75 CNS; SK-MEL-2 melanoma; SNB-19 CNS; KM12 colon; MALME-3M melanoma; MDA-N.
Common to all, as to assay: NCI anticancer screen, dose series, 48 h

The structures appear in SMILES notation.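 These data come from cells grown in 96-well plates and exposed to compound for 48 hours at five concentrations. TGI marks complete inhibition of growth.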

For `O=C1N[C@H]2c3c(Cl)sc(Cl)c3C(=O)[C@H]2O1`, the TGI in the test on CCRF-CEM leukemia was over 21.2 µM; in the test with NCI-H522 lung, 3.43 µM; in the test on PC-3 prostate, over 62.5 µM; in the test on OVCAR-5 ovarian it was 51.1 µM; with HCT-116 colon it was over 35.6 µM; with OVCAR-4 ovarian, 37.5 µM. In addition, the TGI in the test with MCF7 breast is over 100 µM; in the test on SNB-75 CNS it was 34.9 µM; in the test on SK-MEL-2 melanoma, over 59.9 µM; in the test on SNB-19 CNS, 46.5 µM; in the test with KM12 colon it was over 100 µM; with MALME-3M melanoma, 24.1 µM. The TGI in the test with MDA-N was over 57.5 µM.

Take `C1=C2SSC3=CC=C(SSc4ccc(s4)SSC4=CC=C(SSC(=C1)S2)S4)S3`: the TGI in the test with CCRF-CEM leukemia, in the test with NCI-H522 lung, with PC-3 prostate, in the test with OVCAR-5 ovarian, in the test with HCT-116 colon and in the test on OVCAR-4 ovarian was over 100 µM each time. The TGI with MCF7 breast, in the test on SNB-75 CNS, in the test with SK-MEL-2 melanoma, in the test on SNB-19 CNS, with KM12 colon and with MALME-3M melanoma was over 100 µM throughout. Further, the TGI in the test with MDA-N is over 100 µM.

For `COC1/C=C\C=C(/C)C(=O)NC2=CC(=O)C(NCCCl)=C(CC(C)CC(OC)C(O)C(C)/C=C(/C)C1OC(N)=O)C2=O` (configuration not stated), the TGI in the test with CCRF-CEM leukemia was 21.9 µM; in the test with NCI-H522 lung, 0.319 µM; in the test with PC-3 prostate, 8.84 µM; in the test on OVCAR-5 ovarian it was 11.7 µM; in the test with HCT-116 colon it was 2.88 µM; in the test with OVCAR-4 ovarian it was 15 µM. Further, the TGI with MCF7 breast was 2.19 µM; in the test on SNB-75 CNS, 3.81 µM; in the test with SK-MEL-2 melanoma, 2.15 µM; in the test on SNB-19 CNS it was 13.6 µM; in the test on KM12 colon it was 2.01 µM; in the test on MALME-3M melanoma, 1.48 µM. This compound also displayed a TGI in the test with MDA-N of 12.3 µM.

Take `CN(NC(=O)c1ccco1)C1=NCCCCN1`: the TGI with CCRF-CEM leukemia, in the test on NCI-H522 lung, with PC-3 prostate, in the test on OVCAR-5 ovarian, with HCT-116 colon and in the test on OVCAR-4 ovarian was over 100 µM throughout. The TGI in the test on MCF7 breast, in the test on SNB-75 CNS, with SK-MEL-2 melanoma, with SNB-19 CNS, in the test on KM12 colon and with MALME-3M melanoma was over 100 µM each time. For the same compound, the TGI with MDA-N is over 100 µM.

In the case of `CC(C)CN1CN(c2ccccc2)C2(CCN(CC(C)(c3ccc(F)cc3)C3OCCO3)CC2)C1=O` (configuration not stated), the TGI with CCRF-CEM leukemia amounted to 18.1 µM; with NCI-H522 lung it was 12.7 µM; with PC-3 prostate it was 14.3 µM; in the test with OVCAR-5 ovarian, 25.7 µM; in the test on HCT-116 colon, 13.9 µM; with OVCAR-4 ovarian, 29.7 µM. Moreover, the TGI was found to be 13.8 µM in the test on MCF7 breast; 20 µM in the test on SNB-75 CNS; 11.5 µM in the test on SK-MEL-2 melanoma; 21.9 µM in the test with SNB-19 CNS; 15.6 µM in the test on KM12 colon; 17.2 µM in the test with MALME-3M melanoma. This compound also came in with a TGI with MDA-N of 19.6 µM.

`NC1=CN(CCCO)C2=N/C(=C\c3ccco3)C(=O)N12`: the TGI in the test with CCRF-CEM leukemia, in the test with NCI-H522 lung, in the test with PC-3 prostate, in the test with OVCAR-5 ovarian, in the test with HCT-116 colon and with OVCAR-4 ovarian was over 100 µM throughout. The TGI with MCF7 breast, in the test with SNB-75 CNS, in the test with SK-MEL-2 melanoma, in the test with SNB-19 CNS, in the test with KM12 colon and in the test on MALME-3M melanoma was over 100 µM in each case. The compound further had a TGI with MDA-N of over 100 µM.

For `C=C(NC(=O)C(=C)NC(=O)c1csc(C2=NC3c4csc(n4)C4NC(=O)c5csc(n5)C(C(C)(O)C(C)O)NC(=O)C5CSC(=N5)/C(=C/C)NC(=O)C(C(C)O)NC(=O)c5csc(n5)C3(CC2)NC(=O)C(C)NC(=O)C(=C)NC(=O)C(=C)NC(=O)C(C(C)C)NC2C=Cc3c(C(C)O)cc(nc3C2O)C(=O)OC4C)n1)C(N)=O` (configuration not stated), the TGI is 6.8 µM with CCRF-CEM leukemia; 0.322 µM with NCI-H522 lung; over 100 µM in the test on PC-3 prostate; 28.2 µM in the test on OVCAR-5 ovarian; 2.64 µM in the test with HCT-116 colon; over 83.5 µM with OVCAR-4 ovarian. Moreover, the TGI in the test with MCF7 breast is over 26 µM; in the test on SNB-75 CNS, over 100 µM; with SK-MEL-2 melanoma it was over 38.9 µM; in the test on SNB-19 CNS, 65.4 µM; with KM12 colon, over 100 µM; in the test with MALME-3M melanoma it was 0.786 µM. In the test with MDA-N, this compound displayed a TGI of over 100 µM.

For `Oc1ccc(-c2cc(-c3c(O)cc(O)cc3O)on2)cc1`, the TGI in the test with CCRF-CEM leukemia, with NCI-H522 lung, in the test with PC-3 prostate, in the test on OVCAR-5 ovarian, in the test with HCT-116 colon and with OVCAR-4 ovarian was over 100 µM throughout. The TGI in the test on MCF7 breast, in the test with SNB-75 CNS, in the test on SK-MEL-2 melanoma, with SNB-19 CNS, with KM12 colon and in the test with MALME-3M melanoma was over 100 µM in each case. The compound also returned a TGI in the test with MDA-N of over 100 µM.

Take `COc1ccc(C2CC(c3cc4c(C)c(C(=O)c5ccccc5)oc4cc3O)=Nc3ccccc3S2)cc1OC` (configuration not stated): the TGI in the test on CCRF-CEM leukemia was over 100 µM; in the test on NCI-H522 lung, over 85 µM; in the test on PC-3 prostate it was over 100 µM; in the test with OVCAR-5 ovarian, over 100 µM; in the test with HCT-116 colon, over 100 µM; in the test on OVCAR-4 ovarian, over 48.9 µM. For the same compound, the TGI in the test with MCF7 breast was over 100 µM; in the test with SNB-75 CNS it was over 100 µM; with SK-MEL-2 melanoma, over 100 µM; in the test with SNB-19 CNS, over 85.8 µM; in the test with KM12 colon, over 34.8 µM; in the test on MALME-3M melanoma, over 100 µM. This compound also yielded a TGI with MDA-N of over 61.6 µM.

With `O=[N+]([O-])/C(C(Cl)=C(Cl)Cl)=C1\Nc2ccccc2O1`, the TGI is 38.7 µM in the test on CCRF-CEM leukemia; 63.8 µM with NCI-H522 lung; over 100 µM in the test with PC-3 prostate; over 100 µM in the test with OVCAR-5 ovarian; over 100 µM in the test on HCT-116 colon; over 100 µM with OVCAR-4 ovarian. In addition, the TGI is over 100 µM in the test on MCF7 breast; 64.8 µM with SNB-75 CNS; over 100 µM with SK-MEL-2 melanoma; over 100 µM in the test with SNB-19 CNS; over 100 µM with KM12 colon; over 100 µM in the test with MALME-3M melanoma. This compound had a TGI in the test with MDA-N of over 100 µM.

In the case of `O=C(Cc1ccc(Cl)c(Cl)c1)NCCCN1CCN(CCCN2CCCCC2)CC1`, the TGI with CCRF-CEM leukemia was 34 µM; with NCI-H522 lung, 35.1 µM; in the test on PC-3 prostate, 40.7 µM; in the test with OVCAR-5 ovarian, 46.6 µM; in the test with HCT-116 colon, 32.9 µM; with OVCAR-4 ovarian, over 100 µM. In addition, the TGI in the test on MCF7 breast came to 34.2 µM; with SNB-75 CNS it was 49.3 µM; in the test on SK-MEL-2 melanoma, 21.6 µM; in the test on SNB-19 CNS, 63.9 µM; with KM12 colon, 31.2 µM; with MALME-3M melanoma it was 34.7 µM. In addition, in the test on MDA-N, the TGI was 6.31 µM.

Turning to `CCOC(=O)C(NCc1ccccc1)(NC(=O)c1ccccc1)C(F)(F)F` (configuration not stated), the TGI was 89.9 µM in the test on CCRF-CEM leukemia; over 100 µM with NCI-H522 lung; over 100 µM in the test with PC-3 prostate; over 100 µM in the test on OVCAR-5 ovarian; over 100 µM with HCT-116 colon; over 100 µM in the test on OVCAR-4 ovarian. In addition, the TGI in the test with MCF7 breast, in the test on SNB-75 CNS, in the test with SK-MEL-2 melanoma, with SNB-19 CNS, in the test on KM12 colon and with MALME-3M melanoma was over 100 µM each time. Further, the TGI with MDA-N is over 100 µM.

For the compound `O=C(C=P(c1ccccc1)(c1ccccc1)c1ccccc1)C12CC3CC(CC(C3)C1)C2`, the TGI stood at 32.7 µM in the test with CCRF-CEM leukemia; 20.6 µM in the test with NCI-H522 lung; 24 µM with PC-3 prostate; 32.7 µM with OVCAR-5 ovarian; 29.4 µM in the test with HCT-116 colon; 52.9 µM in the test on OVCAR-4 ovarian. Moreover, the TGI worked out at 35.8 µM in the test with MCF7 breast; 33.3 µM in the test on SNB-75 CNS; 29.5 µM with SK-MEL-2 melanoma; 27 µM in the test on SNB-19 CNS; 32 µM in the test on KM12 colon; 38 µM with MALME-3M melanoma. In addition, in the test on MDA-N, the TGI is 29.2 µM.

In the case of `O=C1CC(NC(=O)C(F)(F)F)c2c(Br)sc(N3CCC(c4ccccc4)CC3)c21` (configuration not stated), the TGI in the test with CCRF-CEM leukemia is over 100 µM; in the test on NCI-H522 lung, over 100 µM; in the test with PC-3 prostate it was over 100 µM; with OVCAR-5 ovarian it was over 100 µM; in the test on HCT-116 colon it was over 100 µM; with OVCAR-4 ovarian, 92.6 µM. Further, the TGI in the test on MCF7 breast was over 100 µM; in the test on SNB-75 CNS, over 100 µM; in the test on SK-MEL-2 melanoma, over 100 µM; with SNB-19 CNS, 78.2 µM; with KM12 colon, over 100 µM; in the test with MALME-3M melanoma, over 100 µM. In the test on MDA-N, this compound showed a TGI of over 100 µM.
